Results taken from ChEMBL document CHEMBL5154942, “Discovery of Clinical Candidate NTQ1062 as a Potent and Bioavailable Akt Inhibitor for the Treatment of Human Tumors” (J Med Chem, 2022).
Active and inactive are the calls of the source. The rule behind the calls is not given here.

Experiments:
[1] = Metabolic stability in Crab eating monkey liver microsomes assessed as half life at 1 uM measured after 60 mins by LC-MS/MS analysis; assay type: ADME, Macaca fascicularis, Microsome; conditions: cynomolgus monkey
[2] = Metabolic stability in Sprague-Dawley rat liver microsomes assessed as half life at 1 uM measured after 60 mins by LC-MS/MS analysis; assay type: ADME, Microsome
[3] = Metabolic stability in CD-1 mouse liver microsomes assessed as parent compound remaining at 1 uM measured after 60 mins by UPLC-MS/MS analysis; assay type: ADME, Microsome; conditions: read-out: Stability
[4] = Cmax in crab-eating monkey at 6 mg/kg, ig by UPLC-MS/MS analysis; assay type: ADME, organism-based, Macaca fascicularis; design: dose 6 mg/kg, route ig; conditions: cynomolgus monkey, in vivo, po
[5] = Cmax in crab-eating monkey at 3 mg/kg, iv measured upto 24 hrs by UPLC-MS/MS analysis; assay type: ADME, organism-based, Macaca fascicularis; design: dose 3 mg/kg, time < 24 hrs, route iv; conditions: cynomolgus monkey, in vivo
[6] = AUC (0 to t) in NCG mouse xenografted with human LNCaP cells at 25 mg/kg administered daily once for 18 to 21 days and measured upto 10 hrs post last dose by LC-MS/MS analysis; assay type: ADME, organism-based; design: time 18-21 day, dose 25 mg/kg; conditions: in vivo
[7] = Metabolic stability in Sprague-Dawley rat liver microsomes assessed hepatic clearance at 1 uM measured after 60 mins by LC-MS/MS analysis; assay type: ADME, Microsome; conditions: 1 h
LNCaP [8] = assay: Induction of apoptosis in human LNCaP cells assessed as necrotic cells at 1.25 uM incubated for 72 hrs by annexin V/PI double staining based flow cytometry method (reference value: 2.41%); assay type: functional
[9] = Cmax in Sprague-Dawley rat at 5 mg/kg, iv measured upto 24 hrs by UPLC-MS/MS analysis; assay type: ADME, organism-based; design: dose 5 mg/kg, time < 24 hrs, route iv; conditions: in vivo
[10] = Half life in Sprague-Dawley rat at 10 mg/kg, ig by UPLC-MS/MS analysis; assay type: ADME, organism-based; conditions: in vivo, po
Cytochrome P450 2C19 = Cytochrome P450 2C19 (Homo sapiens, UniProt P33261); assay: Inhibition of CYP2C19 in human liver microsomes at 0.01 to 30 uM using mephenytoin as substrate in presence of NADPH by UPLC-MS/MS analysis; assay type: ADME, Microsome
[11] = Toxicity in NCG mouse xenografted with human LNCaP cells assessed as tolerability at 12.5 to 50 mg/kg administered for 18 days; assay type: organism-based; conditions: in vivo, 432 h, dose 12.5-50 mg/kg, time 18 day
LNCaP [12] = assay: Induction of cell cycle arrest in human LNCap cells assessed as decrease in accumulation at G2/M phase at 0.04 to 1 uM incubated for 24 hrs by flow cytometry; assay type: functional, cell-based; conditions: dose 0.04-1 µM
[13] = Metabolic stability in CD-1 mouse liver microsomes assessed hepatic clearance at 1 uM measured after 60 mins by LC-MS/MS analysis; assay type: ADME, Microsome; conditions: 1 h
Cytochrome P450 1A2 = target: T1, Cytochrome P450 1A2 (Homo sapiens, UniProt P05177); assay: Inhibition of CYP1A2 in human liver microsomes at 0.01 to 30 uM […] in presence of NADPH by UPLC-MS/MS analysis; assay type: ADME, Microsome
T1 sequence (P05177 whole entry): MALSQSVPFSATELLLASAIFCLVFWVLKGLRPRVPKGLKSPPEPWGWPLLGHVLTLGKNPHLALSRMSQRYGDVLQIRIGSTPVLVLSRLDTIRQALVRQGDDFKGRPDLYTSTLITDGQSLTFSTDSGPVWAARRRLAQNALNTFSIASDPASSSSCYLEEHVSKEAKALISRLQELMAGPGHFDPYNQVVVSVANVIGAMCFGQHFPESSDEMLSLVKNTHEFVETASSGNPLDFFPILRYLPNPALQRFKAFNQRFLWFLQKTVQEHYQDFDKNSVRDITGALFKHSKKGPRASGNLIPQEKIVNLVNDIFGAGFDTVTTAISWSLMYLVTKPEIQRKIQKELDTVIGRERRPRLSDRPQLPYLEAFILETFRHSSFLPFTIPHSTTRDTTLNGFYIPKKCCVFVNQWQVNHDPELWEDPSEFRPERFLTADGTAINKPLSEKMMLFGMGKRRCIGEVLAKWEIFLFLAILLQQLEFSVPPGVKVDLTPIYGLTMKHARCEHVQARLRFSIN

[14] = Tmax in NCG mouse xenografted with human LNCaP cells at 50 mg/kg administered once daily for 18 to 21 days and measured upto 10 hrs post last dose by LC-MS/MS analysis; assay type: ADME, organism-based; conditions: in vivo, time 18-21 day
[15] = Metabolic stability in human […] liver microsomes assessed as half life at 1 uM measured after 60 mins by LC-MS/MS analysis; assay type: ADME, Microsome
LNCaP [16] = assay: Induction of apoptosis in human LNCaP cells assessed as apoptotic cells at […] incubated for 72 hrs by annexin V/PI double staining based flow cytometry method (reference value: 3.95 %); assay type: functional; conditions: dose 2.5 µM
[17] = AUC (0 to infinity) in Sprague-Dawley rat at 10 mg/kg, ig by UPLC-MS/MS analysis; assay type: ADME, organism-based; design: time infinity, dose 10 mg/kg, route ig; conditions: in vivo, po
[18] = Cmax in NCG mouse xenografted with human LNCaP cells at 12.5 mg/kg administered once daily for 18 to 21 days and measured upto 10 hrs post last dose by LC-MS/MS analysis; assay type: ADME, organism-based; conditions: in vivo
LNCaP [19] = assay: Induction of cell cycle arrest in human LNCap cells assessed as decrease in accumulation at S phase at 0.04 to 1 uM incubated for 24 hrs by flow cytometry; assay type: functional, cell-based; conditions: dose 0.04-1 µM
[20] = AUC (0 to t) in NCG mouse xenografted with human LNCaP cells at 50 mg/kg administered daily once for 18 to 21 days and measured upto 10 hrs post last dose by LC-MS/MS analysis; assay type: ADME, organism-based; design: dose 50 mg/kg, time 18-21 day; conditions: in vivo
Cytochrome P450 2C9 = Cytochrome P450 2C9 (Homo sapiens, UniProt P11712); assay: Inhibition of CYP2C9 in human liver microsomes at 0.01 to 30 uM using diclofenac as substrate in presence of NADPH by UPLC-MS/MS analysis; assay type: ADME, Microsome
[21] = AUC (0 to infinity) in crab-eating monkey at 6 mg/kg, ig by UPLC-MS/MS analysis; assay type: ADME, organism-based, Macaca fascicularis; design: time infinity, dose 6 mg/kg, route ig; conditions: cynomolgus monkey, in vivo, po
[22] = Metabolic stability in Beagle dog liver microsomes assessed hepatic clearance at 1 uM measured after 60 mins by LC-MS/MS analysis; assay type: ADME, Canis lupus familiaris, Microsome; conditions: 1 h
[23] = target: Protein kinase C alpha type (Homo sapiens) (UniProt P17252); assay: Inhibition of PKCalpha (unknown origin) at 1 uM in presence of ATP at Km concentration by mobility shift assay relative to control
[24] = AUC (0 to infinity) in Sprague-Dawley rat at 5 mg/kg, iv measured upto 24 hrs by UPLC-MS/MS analysis; assay type: ADME, organism-based; design: dose 5 mg/kg, time < 24 hrs, route iv; conditions: in vivo
LNCaP [25] = assay: Induction of apoptosis in human LNCaP cells assessed as necrotic cells at […] incubated for 72 hrs by annexin V/PI double staining based flow cytometry method (reference value: 2.41%); assay type: functional
LNCaP [26] = assay: In vivo antitumor activity against human LNCap cells xenografted in NCG mouse assessed as tumor growth inhibition at 50 mg/kg administered once daily for 18 to 21 days relative to control; assay type: functional; conditions: time 18-21 day, read-out: TGI
LNCaP [27] = assay: Induction of apoptosis in human LNCaP cells assessed as viable cells at 1.25 uM incubated for 72 hrs by annexin V/PI double staining based flow cytometry method (reference value: 93.63 %); assay type: functional; conditions: read-out: Activity
[28] = Half life in crab-eating monkey at 6 mg/kg, ig by UPLC-MS/MS analysis; assay type: ADME, organism-based, Macaca fascicularis; conditions: cynomolgus monkey, in vivo, po

Sequence of Cytochrome P450 2C9 (P11712 whole entry): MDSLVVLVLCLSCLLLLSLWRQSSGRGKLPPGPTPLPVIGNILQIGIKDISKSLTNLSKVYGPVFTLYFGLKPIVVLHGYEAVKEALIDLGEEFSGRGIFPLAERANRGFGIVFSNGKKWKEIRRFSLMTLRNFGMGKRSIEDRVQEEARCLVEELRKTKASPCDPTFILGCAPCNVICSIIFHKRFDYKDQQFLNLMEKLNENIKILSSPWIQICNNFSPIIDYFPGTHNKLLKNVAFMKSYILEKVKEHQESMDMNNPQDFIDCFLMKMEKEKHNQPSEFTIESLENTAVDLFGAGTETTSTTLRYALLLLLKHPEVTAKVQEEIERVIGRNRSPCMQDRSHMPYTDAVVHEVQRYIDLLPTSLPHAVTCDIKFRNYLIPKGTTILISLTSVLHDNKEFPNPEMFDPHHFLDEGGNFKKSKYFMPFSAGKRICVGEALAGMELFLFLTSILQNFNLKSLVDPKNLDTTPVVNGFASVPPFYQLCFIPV
Sequence of Cytochrome P450 2C19 (P33261 whole entry): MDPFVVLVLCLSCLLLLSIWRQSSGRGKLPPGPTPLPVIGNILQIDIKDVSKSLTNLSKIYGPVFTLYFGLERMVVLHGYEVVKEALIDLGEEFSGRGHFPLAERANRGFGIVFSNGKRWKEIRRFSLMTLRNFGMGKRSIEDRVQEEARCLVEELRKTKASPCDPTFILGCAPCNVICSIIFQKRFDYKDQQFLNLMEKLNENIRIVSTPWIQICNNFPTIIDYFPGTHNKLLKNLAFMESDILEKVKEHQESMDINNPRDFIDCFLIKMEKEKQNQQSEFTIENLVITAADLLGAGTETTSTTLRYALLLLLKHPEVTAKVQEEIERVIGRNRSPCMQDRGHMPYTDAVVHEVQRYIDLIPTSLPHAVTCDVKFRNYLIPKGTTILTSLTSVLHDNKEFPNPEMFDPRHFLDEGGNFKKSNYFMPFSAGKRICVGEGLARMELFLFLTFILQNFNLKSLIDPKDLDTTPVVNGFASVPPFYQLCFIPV

`CC(C)NC[C@@H](C(=O)N1CCN(c2ncnc3c2[C@H](C)CC(=O)N3)[C@H]2C[C@H]21)c1ccc(Cl)cc1` gave a half-life at 1 µM [1] of 0.472 h, a half-life at 1 µM [2] greater than 3.82 h and a remaining at 1 h, 1 µM [3] of 92.3%. For the same compound, the Cmax [4] was 237 ng/mL, the Cmax [5] was 702 ng/mL and the AUC(0-t) [6] was 13500 ng·h/mL. It also gave a CLH [7] of less than 732 mL/h/kg, an Activity (LNCaP [8]) of 4.92% and a Cmax [9] of 1690 ng/mL. The half-life [10] was 3.28 h, the IC50 (Cytochrome P450 2C19) was greater than 50 µM and the Activity [11] was “Non-Toxic”. The Activity (LNCaP [12]) was “Active”, the CLH [13] was less than 0.762 mL/h/kg and the IC50 (Cytochrome P450 1A2) was greater than 50 µM. The Tmax [14] was 1 h, the half-life at 1 µM [15] was 1.52 h and the Activity (LNCaP [16]) was 38.97%. The AUC(0-inf) [17] was 3890 ng·h/mL, the Cmax [18] was 963 ng/mL and the Activity (LNCaP [19]) was “Active”. The AUC(0-t) [20] was 22000 ng·h/mL, the IC50 (Cytochrome P450 2C9) was greater than 50 µM and the AUC(0-inf) [21] was 1680 ng·h/mL. For the same compound, the CLH [22] was 1.01 mL/h/kg, the inhibition [23] was 90% and the AUC(0-inf) [24] was 1800 ng·h/mL. For the same compound, the Activity (LNCaP [25]; dose 0.62 µM) was 4.72%, the Activity (LNCaP [25]; dose 2.5 µM) was 6% and the inhibition in vivo at 50 mg/kg (LNCaP [26]) was 95.5%. For the same compound, the viability at 1.25 µM (LNCaP [27]) was 69.8% and the half-life [28] was 6.16 h.
